From US10392383B2, “3-(1H-benzo[d]imidazol-2-yl)-1H-pyrazolo[4,3-b]pyridines and therapeutic uses thereof” (Samumed, LLC, priority 2015, dated 2019)

Experiments:
Type in all cases: cell-based
[1] = tested on: primary human mesenchymal stem cells (hMSCs); experiment: Induction of chondrogenesis in human mesenchymal stem cells (nodule staining with Rhodamine B / Nile Red); conditions: for Emax: TGF-β3 (10 ng/mL) as positive control, read-out: Max. Activity as % TGF-β3 activity; for EC50: concentration required to induce 50% levels of chondrogenesis vs TGF-β3, read-out: Conc (nM) of 50% TGF-β3 activity
Summary of the method: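 Primary hMSCs (passage 3–6) in incomplete chondrogenic induction medium were exposed 6 days at 37° C to compound (1:3 dilutions, 2700–10 nM in 96-well or 5000–2.2 nM in 384-well; 0.03% DMSO). Nodules stained with Rhodamine B/Nile Red were imaged; area normalized to DMSO wells for EC50, maximal activity and dose at maximum.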

[2] = tested on: IL-6 (THP-1 cells); experiment: IL-6 inhibition in LPS-stimulated THP-1 monocytes (HTRF); conditions: Homo sapiens, IL-6 HTRF; for EC50: 500 ng/mL LPS, Table 6; for inhibition at 10 µM: LPS, Table 6, read-out: percent inhibition at 10 μM (given in parentheses for EC50 >10 μM)
Summary of the method: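 THP-1 cells in 1% FBS pre-incubated 2 h with compound (10-point 1:3 series from 10 μM, 0.1% DMSO), then stimulated with 500 ng/mL LPS for 22 h at 37 °C. IL-6 measured by HTRF 665/620 ratio, normalized to DMSO; EC50 by four-parameter fit, or % inhibition at 10 μM when EC50 >10 μM.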

[3] = tested on: SW480 colon cancer cells; experiment: Cell viability assay (CellTiter-Blue) in SW480 cells; conditions: Homo sapiens, 96 h, four days, CellTiter-Blue, 10 μM to 0.0045 μM
Summary of the method: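 4-day exposure, 37 °C/5% CO2; ~2×10^3 SW480 cells/well; 8-pt 1:3 curve, 10–0.0045 μM, duplicates vs DMSO controls. Resazurin→resorufin fluorescence readout, ~3 h. EC50 by nonlinear fit; if >10 μM, % inhibition at 10 μM reported.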

SMILES	Emax [1] [%]	EC50 [1] [nM]	EC50 [2] [nM]	inhibition at 10 µM [2] [%]	EC50 [3] [nM]
CN(C)Cc1cncc(-c2ccc3[nH]nc(-c4nc5c(-c6cccs6)cccc5[nH]4)c3n2)c1 [Compound 349, N,N-dimethyl-1-(5-(3-(4-(thiophen-2-yl)-1H-benzo[d]imidazol-2-yl)-1H-pyrazolo[4,3-b]pyridin-5-yl)pyridin-3-yl)methanamine]	51	10	> 10000	14.5	2890
Cc1ccc(-c2cccc3[nH]c(-c4n[nH]c5ccc(-c6cncc(N)c6)nc45)nc23)s1 [Compound 395, 5-(3-(4-(5-Methylthiophen-2-yl)-1H-benzo[d]imidazol-2-yl)-1H-pyrazolo [4,3-b]pyridin-5-yl)pyridin-3-amine]	88	10	64		320
Cc1ccc(-c2cccc3[nH]c(-c4n[nH]c5ccc(-c6cncc(NC(=O)C(C)C)c6)nc45)nc23)s1 [Compound 401, N-(5-(3-(4-(5-Methylthiophen-2-yl)-1H-benzo[d]imidazol-2-yl)-1H-pyrazolo [4,3-b]pyridin-5-yl)pyridin-3-yl)isobutyramide]	124	300	> 10000	45.4	3830
CCNCc1cncc(-c2ccc3[nH]nc(-c4nc5c(-c6cc(F)cc(NCCN(C)C)c6)cccc5[nH]4)c3n2)c1 [Compound 454, N^1-(3-(2-(5-(5-((Ethylamino)methyl)pyridin-3-yl)-1H-pyrazolo[4,3-b]pyridin-3-yl)-1H-benzo[d]imidazol-4-yl)-5-fluorophenyl)-N^2,N^2-dimethylethane-1,2-diamine]	104	62	628		1480
CC(C)Nc1cncc(-c2ccc3[nH]nc(-c4nc5c(-c6cc(F)cc(NCCN(C)C)c6)cccc5[nH]4)c3n2)c1 [Compound 460, N^1-(3-Fluoro-5-(2-(5-(5-(isopropylamino)pyridin-3-yl)-1H-pyrazolo[4,3-b]pyridin-3-yl)-1H-benzo[d]imidazol-4-yl)phenyl)-N^2,N^2-dimethylethane-1,2-diamine]	62	10	975		508
CCCCC(=O)Nc1cncc(-c2ccc3[nH]nc(-c4nc5c(-c6cc(F)cc(NCCN(C)C)c6)cccc5[nH]4)c3n2)c1 [Compound 467, N-(5-(3-(4-(3-((2-(Dimethylamino)ethyl)amino)-5-fluorophenyl)-1H-benzo [d]imidazol-2-yl)-1H-pyrazolo[4,3-b]pyridin-5-yl)pyridin-3-yl)pentanamide]	36		1320		1100
Cc1ccncc1-c1ccc2[nH]nc(-c3nc4c(-c5cc(F)cc(CNS(C)(=O)=O)c5)cccc4[nH]3)c2n1 [Compound 481, N-(3-Fluoro-5-(2-(5-(4-methylpyridin-3-yl)-1H-pyrazolo[4,3-b]pyridin-3-yl)-1H-benzo[d]imidazol-4-yl)benzyl)methanesulfonamide]	36		2120		5590
CCCC(=O)Nc1cncc(-c2ccc3[nH]nc(-c4nc5c(-c6cc(F)cc(CNS(C)(=O)=O)c6)cccc5[nH]4)c3n2)c1 [Compound 493, N-(5-(3-(4-(3-Fluoro-5-(methylsulfonamidomethyl)phenyl)-1H-benzo[d]imidazol-2-yl)-1H-pyrazolo[4,3-b]pyridin-5-yl)pyridin-3-yl)butyramide]	100	900	> 10000	35.3	3930
Fc1cccc(-c2cccc3[nH]c(-c4n[nH]c5ccc(C6CCNCC6)nc45)nc23)c1 [Compound 505, 3-(4-(3-Fluorophenyl)-1H-benzo[d]imidazol-2-yl)-5-(piperidin-4-yl)-1H-pyrazolo[4,3-b]pyridine]	46		4920		1460
Cn1cc(-c2ccc3[nH]nc(-c4nc5c(-c6cccc(F)c6)cccc5[nH]4)c3n2)cn1 [Compound 508, 3-(4-(3-Fluorophenyl)-1H-benzo[d]imidazol-2-yl)-5-(1-methyl-1H-pyrazol-4-yl)-1H-pyrazolo[4,3-b]pyridine]	48		> 10000	0	1120
Cc1ncc(-c2ccc3[nH]nc(-c4nc5c(-c6cccc(F)c6)cccc5[nH]4)c3n2)n1C [Compound 509, 5-(1,2-Dimethyl-1H-imidazol-5-yl)-3-(4-(3-fluorophenyl)-1H-benzo[d]imidazol-2-yl)-1H-pyrazolo[4,3-b]pyridine]	112	10	788		414
NC1CN(c2cncc(-c3ccc4[nH]nc(-c5nc6c(-c7cccc(F)c7)cccc6[nH]5)c4n3)n2)C1 [Compound 510, 1-(6-(3-(4-(3-Fluorophenyl)-1H-benzo[d]imidazol-2-yl)-1H-pyrazolo[4,3-b]pyridin-5-yl)pyrazin-2-yl)azetidin-3-amine]	53	7	7840		952
Fc1cccc(-c2cccc3[nH]c(-c4n[nH]c5ccc(-c6cncc(OC7CCNCC7)c6)nc45)nc23)c1 [Compound 512, 3-(4-(3-Fluorophenyl)-1H-benzo[d]imidazol-2-yl)-5-(5-(piperidin-4-yloxy)pyridin-3-yl)-1H-pyrazolo[4,3-b]pyridine]	75	7	1520		2280
CN(C)CCOc1cncc(-c2ccc3[nH]nc(-c4nc5c(-c6cccc(F)c6)cccc5[nH]4)c3n2)c1 [Compound 515, 2-((5-(3-(4-(3-Fluorophenyl)-1H-benzo[d]imidazol-2-yl)-1H-pyrazolo[4,3-b]pyridin-5-yl)pyridin-3-yl)oxy)-N,N-dimethylethan-1-amine]	55	2	7380		1380
COc1cncc(-c2ccc3[nH]nc(-c4nc5c(-c6cccc(F)c6)cccc5[nH]4)c3n2)c1 [Compound 516, 3-(4-(3-Fluorophenyl)-1H-benzo[d]imidazol-2-yl)-5-(5-methoxypyridin-3-yl)-1H-pyrazolo[4,3-b]pyridine]	54	2	> 10000	49.5	1160
Oc1cncc(-c2ccc3[nH]nc(-c4nc5c(-c6cccc(F)c6)cccc5[nH]4)c3n2)c1 [Compound 517, 5-(3-(4-(3-Fluorophenyl)-1H-benzo[d]imidazol-2-yl)-1H-pyrazolo[4,3-b]pyridin-5-yl)pyridin-3-ol]	45		9700		4540
